From patent US10028992B2, “Methods of treating muscular dystrophy” (BOARD OF REGENTS OF THE NEVADA SYSTEM OF HIGHER EDUCATION …, priority 2012, dated 2018)
Where “and” joins values, the source holds several entries; their conditions need not be identical. Identical values can stand only once.

Tested on: α7 integrin promoter
Experiment: muscle cell-based assay: α7βgal+/− myoblasts/myotubes, LacZ reporter, β-galactosidase cleavage of FDG
Parameters: species or system mouse
Conditions: Myotubes; for Results in a α7+/− β-galactosidase assay, Myotubes, 0.5 uM: compound at 0.5 uM; for Results in a α7+/− β-galactosidase assay, Myotubes, 1 uM: compound at 1 uM; for Results in a α7+/− β-galactosidase assay, Myotubes, 5 uM: compound at 5 uM; for Results in a α7+/− β-galactosidase assay, Myotubes, 10 uM: compound at 10 uM; for Results in a α7+/− β-galactosidase assay, Myotubes, 20 uM: compound at 20 uM; for Results in a α7+/− β-galactosidase assay, Myotubes, 40 uM: compound at 40 uM
Method in brief: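 Fluorescein generated from FDG by β-galactosidase reports α7 integrin promoter activity in differentiated myoblasts from α7+/− LacZ knock-in pups. Screening hits then went to dose-response, western blotting and a myostatin counterscreen.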

SMILES	Results in a α7+/− β-galactosidase assay, Myotubes, 0.5 uM	Results in a α7+/− β-galactosidase assay, Myotubes, 1 uM	Results in a α7+/− β-galactosidase assay, Myotubes, 5 uM	Results in a α7+/− β-galactosidase assay, Myotubes, 10 uM	Results in a α7+/− β-galactosidase assay, Myotubes, 20 uM	Results in a α7+/− β-galactosidase assay, Myotubes, 40 uM
CCOc1ccc2nc(Cl)sc2c1 [drawing 370]	−0.00103	0.001963	−0.02718	−0.04332	−0.1345	−0.219
COc1ccc(CNC(=O)C2CCCN(S(=O)(=O)c3c(C)noc3/C=C/N(C)C)C2)cc1 (stereo not shown) [drawing 371]	0.1862	0.2675	−0.1068	−0.1252	−0.1996	−0.2682
CC(O)CNc1nc2c(c(=O)n(Cc3ccc(Br)cc3)c(=O)n2C)n1C (stereo not shown) [drawing 372]	0.1594	0.164	−0.05597	−0.08357	−0.2604	−0.369
COc1ccc(Cl)cc1NC(=O)c1cc(-c2cc(C)ccc2O)[nH]n1 [drawing 373]	0.00543	0.04041	−0.08884	−0.1274	−0.1168	−0.2232
CCC(C)C(CC)NC(=O)CSc1nnc(COc2ccc(Cl)cc2)o1 (stereo not shown) [drawing 374]	0.09087	0.07758	−0.09861	−0.1776	−0.01998	−0.2485
N#Cc1ccc(Sc2nc3ccccc3[nH]2)cc1C#N [drawing 376]	0.09647	0.1219	0.01154	−0.06084	−0.00606	−0.1145
COc1cc(/C=C/CN2CCN(Cc3ccc(C)o3)C(CCO)C2)ccc1O (stereo not shown) [drawing 377]	–	0.1027 and 0.08207	–	–	–	–
COc1ccccc1C(=O)OCc1ccc2sc(C)nc2c1 [drawing 378]	−0.04468	0.06534	0.05342	−0.1134	−0.02544	−0.1114
NC(=O)COc1ccc(C(=O)/C=C2\C(=O)Nc3ccccc32)cc1 [drawing 379]	0.04116	0.06227	0.08579	−0.1303	−0.2553	−0.6822
